Molecules are shown by their SMILES.

These results are taken from US5223526A, “Pyrazole carboxanilide fungicides and use” (Monsanto Company, priority 1992, dated 1993).

The target in test [1] is T1, succinate dehydrogenase (Botrytis cinerea, UniProt A0A384J5E4+A0A384J8V8+A0A384JHJ5).
T1 construct: succinate-DCPIP reductase assay with KCN
The experiment in a line: Enzyme inhibition: succinate dehydrogenase activity in Botrytis cinerea mitochondria (DCPIP reduction). To be noted: concentration required to inhibit the rate of DCPIP reduction by 50%; Botrytis cinerea isolate Nick mitochondria; read-out: I50 (μM conc.). The class given is biochemical. As to the method:
Mitochondria were isolated by a method adapted from G.A. White [Biochem. Biophys. Res. Commun. 44: 1212, 1971]. Twenty to thirty grams of Botrytis cinerea isolate Nick were resuspended in 250 mL 0.25M sucrose, 5mM Na4 EDTA, pH 7.0 (+) 0.15% (w/v) bovine serum albumin (BSA) and placed in a Bead Beater chamber (Biospec Products, Bartlesville, Ok.). Zirconium oxide beads (0.5mm) were added to finish filling the chamber. Four 30 second beats separated by 2 minute temperature equilibration periods in the cold were used to break the mycelia. A crude mitochondrial preparation was harvested from the homogenate by differential centrifugation at 4° C. and resuspended in BSA-free sucrose/EDTA media and used for SDH assays.
The succinate dehydrogenase activity was measured at 600 nm in 50 mM potassium phosphate, pH 7.2, 1 mM KCN, 45 μM 2,6-dichlorophenolindophenol (DCPIP) and 17 mM disodium succinate (final volume, 1 mL) with a Perkin-Elmer Lambda 7 ultraviolet-visible spectrophotometer. The test compounds were added as acetone solutions (final concentration of acetone, 1% (v/v)). The mitochondrial preparatons were used to initiate the reaction. All rates were corrected for endogenous activities minus succinate. Semilog plots of percentage inhibition versus test compound concentration were used to determine inhibition expressed as I50 (μM) which is the concentration required to inhibit the rate of DCPIP reduction by 50%. The commercial fungicide carboxin was used as standard throughout.

Test [2] deals with Botrytis cinerea. Briefly: Eggplant grey mold. The note with it: inoculated 24 h later, rated after 3-4 days; for Disease Control Rating at 20 ppm: eggplant sprayed with 20 ppm; for Disease Control Rating at 100 ppm: eggplant sprayed with 100 ppm; for Disease Control Rating at 500 ppm: eggplant sprayed with 500 ppm. The class given is in vivo. On the set-up: scale not given here. As to the method:
Eggplant seed are planted in 2.25" square pots, six per pot, and maintained in growth chambers set at 23° C., 80% humidity, and 12 h photoperiod. When the plants are at the cotyledon stage (14-18 days afterplanting), the plants are sprayed with 1.5 mL/pot of 500, 100 or 20 ppm 2:3 acetone:water (with 0.5% Tween® 20) formulations of the test compounds.
Twenty-four hours later the plants are inoculated with Botrytis cinerea, approximately 0.5 mL/pot of a 4×10^6 spore/mL suspension. The plantes are incubated at 23° C. and 100% humidity for 3-4 days, at which time disease control ratings are made based on presence and severity of Botrytis lesions.

The subject of test [3] is Botrytis cinerea. The experiment in a line: Vine grey mold (grape berries). The format is in vivo. The note with it: average of six berries, 7-10 days; for pest or weed control at 50 ppm: grape berries treated with 50 ppm, read-out: % DISEASE CONTROL 50 ppm; for pest or weed control at 200 ppm: grape berries treated with 200 ppm, read-out: % DISEASE CONTROL 200 ppm. The method, then: Grape berries, which have been washed and surfaced sterilized in 70% ethanol for one minute, are, except for the negative controls, treated with 0.2 mL of a 2:3 acetone/water formulation (containing 0.05% Tween® 20) of 200 or 50 ppm of the test compounds and placed one per well in 12-well plates. Six berries per treatment level are used. Twenty-four hours later each berry is inoculated with Botrytis cinerea conidia, 0.2 mL of 10^6 spores/mL suspension. The plates are incubated at 20° C. with a 12 hours photoperiod for 7-10 days and the percent surface area infected with the disease is determined for each replicate using the values of 0, 1, 2, 5, 7, 10, 15, 20, 25, 30, 35, 40, 45, 50, 55, 60, 65, 70, 75, 80, 85, 90, 95, and 100%. Treatment means are calculated and percent disease control is determined by the formula [(control mean - treatment mean)/control means]×100.
Some of the compounds have been tested more than once and the results shown are the average of the number of tests reported.

Test [4] has as its system Rhizoctonia solani. The experiment in a line: Rice sheath blight. The note with it: inoculated two days later, rated after 7 days, average of five plants; for Disease Control Rating at 0.02 mg/mL: foliage and soil sprayed with 0.02 mg/mL; for Disease Control Rating at 0.1 mg/mL: foliage and soil sprayed with 0.1 mg/mL; for Disease Control Rating at 0.5 mg/mL: foliage and soil sprayed with 0.5 mg/mL. The format is in vivo. On the set-up: scale not given here. The method, then: Rice plants, 11 to 15 days old, are grown in 7.65 cm^2 pots. Each plant in the treatment groups is treated by spraying both the foliage and the soil surface, each with 2 mL of a water/acetone/Tween®20 formulation containing 0.5, 0.1, or 0.02 mg/mL of Compound A. The pots are placed in flood trays which are filled with water to just below the soil line. Two days later, approximately two grams of Rhizoctonia solani inoculum, cultured on rice grain for four to eight weeks, is applied to the base of the rice plants in each pot. After 7 days in a 25° C. high humidity growth chamber, each plant is evaluated for the level of disease contro as compared to untreated controls by the following scale and the average of five plants per treatment level is calculated.

T1 sequence (A0A384J5E4 1-300): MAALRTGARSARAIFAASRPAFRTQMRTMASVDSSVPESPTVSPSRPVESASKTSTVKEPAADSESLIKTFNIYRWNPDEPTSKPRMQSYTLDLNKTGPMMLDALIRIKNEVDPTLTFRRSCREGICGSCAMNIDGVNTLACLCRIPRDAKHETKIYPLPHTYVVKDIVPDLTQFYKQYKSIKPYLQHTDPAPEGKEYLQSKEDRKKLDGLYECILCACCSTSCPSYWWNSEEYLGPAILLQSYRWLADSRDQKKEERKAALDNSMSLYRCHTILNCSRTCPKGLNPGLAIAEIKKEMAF
T1 sequence (A0A384J8V8 1-189): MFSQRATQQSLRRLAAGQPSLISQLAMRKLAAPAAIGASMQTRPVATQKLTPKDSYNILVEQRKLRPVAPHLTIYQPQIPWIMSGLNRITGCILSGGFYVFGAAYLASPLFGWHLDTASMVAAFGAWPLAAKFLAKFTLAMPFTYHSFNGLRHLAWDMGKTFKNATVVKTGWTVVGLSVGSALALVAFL
T1 sequence (A0A384JHJ5 1-192): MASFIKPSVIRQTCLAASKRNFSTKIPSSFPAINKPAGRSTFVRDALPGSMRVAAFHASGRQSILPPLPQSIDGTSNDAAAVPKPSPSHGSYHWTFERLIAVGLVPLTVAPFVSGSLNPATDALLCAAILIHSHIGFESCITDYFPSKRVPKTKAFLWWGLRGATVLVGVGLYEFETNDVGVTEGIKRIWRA
T1 sequence (A0A384K456 1-647 partner): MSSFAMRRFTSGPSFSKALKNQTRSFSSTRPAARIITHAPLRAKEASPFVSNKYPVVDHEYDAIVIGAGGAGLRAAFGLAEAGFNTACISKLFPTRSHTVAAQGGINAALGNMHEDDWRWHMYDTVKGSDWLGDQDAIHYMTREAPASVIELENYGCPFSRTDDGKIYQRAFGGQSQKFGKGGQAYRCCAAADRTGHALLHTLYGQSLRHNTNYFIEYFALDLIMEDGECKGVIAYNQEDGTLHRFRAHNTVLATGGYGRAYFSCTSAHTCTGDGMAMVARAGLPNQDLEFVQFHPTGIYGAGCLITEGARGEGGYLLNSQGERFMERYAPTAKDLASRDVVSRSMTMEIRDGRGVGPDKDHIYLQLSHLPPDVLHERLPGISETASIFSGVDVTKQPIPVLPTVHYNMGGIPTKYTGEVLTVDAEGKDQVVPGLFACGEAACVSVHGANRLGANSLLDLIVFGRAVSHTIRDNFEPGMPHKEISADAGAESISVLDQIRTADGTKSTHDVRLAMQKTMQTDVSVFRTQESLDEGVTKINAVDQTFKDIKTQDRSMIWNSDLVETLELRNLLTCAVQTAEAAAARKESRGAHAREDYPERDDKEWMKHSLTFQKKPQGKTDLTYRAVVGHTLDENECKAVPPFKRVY

Take `Cn1cc(C(=O)Nc2ccccc2C2CCCCC2)c(C(F)(F)F)n1` [Example 2, 1H-pyrazole-4-carboxamide, N-(2-cyclohexylphenyl)-1-methyl-3-(trifluoromethyl)-]: in test [1], the IC50 was found to be 0.012 µM. In test [2], the “Disease Control Rating at 20 ppm” value was determined as 1, the “Disease Control Rating at 100 ppm” value is listed as 3 and the “Disease Control Rating at 500 ppm” value is 3. In test [3], the pest or weed control at 50 ppm was determined as 84% and the pest or weed control at 200 ppm is 87%. In test [4], the “Disease Control Rating at 0.02 mg/mL” value stood at 3, the “Disease Control Rating at 0.1 mg/mL” value is given as 3 and the “Disease Control Rating at 0.5 mg/mL” value was found to be 3.

For `Cc1nn(C)cc1C(=O)Nc1ccccc1C1CCCCC1` [Example 3, 1H-pyrazole-4-carboxamide, N-(2-cyclohexylphenyl)-1,3-dimethyl-], in test [1], the IC50 stood at 0.027 µM. In addition, in test [2], the “Disease Control Rating at 20 ppm” value is 0, the “Disease Control Rating at 100 ppm” value turned out to be 1 and the “Disease Control Rating at 500 ppm” value is recorded as 2. Further, in test [3], the pest or weed control at 50 ppm came out at 10% and the pest or weed control at 200 ppm was determined as 62%. For the same compound, the “Disease Control Rating at 0.5 mg/mL” value in test [4] was 0.

With `Cn1cc(C(=O)Nc2ccccc2C2CCCCC2)c(C#N)n1` [Example 4, 1H-pyrazole-4-carboxamide, 3-cyano-N-(2-cyclohexylphenyl)-1-methyl-], the IC50 in test [1] amounted to 0.065 µM. Further, in test [2], the “Disease Control Rating at 20 ppm” value was 1, the “Disease Control Rating at 100 ppm” value came out at 2 and the “Disease Control Rating at 500 ppm” value is on record as 2. For the same compound, in test [3], the pest or weed control at 50 ppm worked out at 29% and the pest or weed control at 200 ppm was 58%. Moreover, in test [4], the “Disease Control Rating at 0.5 mg/mL” value worked out at 0.

In the case of `Cn1cc(C(=O)Nc2ccccc2C2CCCCC2)c(Br)n1` [Example 5, 1H-pyrazole-4-carboxamide, 3-bromo-N-(2-cyclohexylphenyl)-1-methyl-], in test [1], the IC50 turned out to be 0.0066 µM. In addition, in test [2], the “Disease Control Rating at 20 ppm” value came to 1, the “Disease Control Rating at 100 ppm” value came to 3 and the “Disease Control Rating at 500 ppm” value is on record as 3. For the same compound, in test [3], the pest or weed control at 50 ppm amounted to 50% and the pest or weed control at 200 ppm was 40%. Further, the “Disease Control Rating at 0.5 mg/mL” value in test [4] is listed as 0.

As to `Cc1nn(C)cc1C(=O)Nc1ccccc1C1CCCC1` [Example 6, 1H-pyrazole-4-carboxamide, N-(2-cyclopentylphenyl)-1,3-dimethyl-], the IC50 in test [1] was 0.25 µM. For the same compound, in test [2], the “Disease Control Rating at 500 ppm” value worked out at 1. For the same compound, in test [3], the pest or weed control at 50 ppm amounted to 0% and the pest or weed control at 200 ppm came out at 20%. Also, in test [4], the “Disease Control Rating at 0.02 mg/mL” value was determined as 0, the “Disease Control Rating at 0.1 mg/mL” value was 0 and the “Disease Control Rating at 0.5 mg/mL” value is reported as 1.

In the case of `Cn1cc(C(=O)Nc2ccccc2C2CCCC2)c(C(F)F)n1` [Example 7, 1H-pyrazole-4-carboxamide, N-(2-cyclopentylphenyl)-3-(difluoromethyl)-1-methyl-], in test [1], the IC50 was found to be 0.0072 µM. For the same compound, the “Disease Control Rating at 500 ppm” value in test [2] turned out to be 0. Moreover, in test [3], the pest or weed control at 50 ppm is 72% and the pest or weed control at 200 ppm came to 86%. Besides, in test [4], the “Disease Control Rating at 0.5 mg/mL” value came to 1.

For `Cn1cc(C(=O)Nc2ccccc2C2CCCC2)c(C(F)(F)F)n1` [Example 8, 1H-pyrazole-4-carboxamide, N-(2-cyclopentylphenyl)-1-methyl-3-(trifluoromethyl)-], the IC50 in test [1] amounted to 0.016 µM. Further, the “Disease Control Rating at 500 ppm” value in test [2] was found to be 0. Further, in test [3], the pest or weed control at 50 ppm stood at 37% and the pest or weed control at 200 ppm was found to be 83%. The “Disease Control Rating at 0.5 mg/mL” value in test [4] came to 0.

Turning to `Cn1cc(C(=O)Nc2ccccc2C2CCCCCC2)c(C(F)F)n1` [Example 9, 1H-pyrazole-4-carboxamide, N-(2-cycloheptylphenyl)-3-(difluoromethyl)-1-methyl-], in test [1], the IC50 is 0.0019 µM. For the same compound, in test [2], the “Disease Control Rating at 20 ppm” value amounted to 0, the “Disease Control Rating at 100 ppm” value was 2 and the “Disease Control Rating at 500 ppm” value is reported as 2. Moreover, in test [3], the pest or weed control at 50 ppm worked out at 94% and the pest or weed control at 200 ppm was determined as 89%. In test [4], the “Disease Control Rating at 0.02 mg/mL” value turned out to be 3, the “Disease Control Rating at 0.1 mg/mL” value is listed as 3 and the “Disease Control Rating at 0.5 mg/mL” value is given as 3.

As to `Cn1cc(C(=O)Nc2ccccc2C2CCCCCC2)c(C(F)(F)F)n1` [Example 10, 1H-pyrazole-4-carboxamide, N-(2-cycloheptylphenyl)-1-methyl-3-(trifluoromethyl)-], in test [1], the IC50 is 0.003 µM. For the same compound, in test [2], the “Disease Control Rating at 20 ppm” value was 2, the “Disease Control Rating at 100 ppm” value is listed as 2 and the “Disease Control Rating at 500 ppm” value came out at 2. Moreover, in test [3], the pest or weed control at 50 ppm came to 87% and the pest or weed control at 200 ppm came out at 85%. In addition, in test [4], the “Disease Control Rating at 0.02 mg/mL” value is on record as 2, the “Disease Control Rating at 0.1 mg/mL” value is given as 3 and the “Disease Control Rating at 0.5 mg/mL” value is recorded as 3.

On to `Cn1cc(C(=O)Nc2ccc(F)cc2C2CCCCC2)c(C(F)F)n1` [Example 11, 1H-pyrazole-4-carboxamide, N-(2-cyclohexyl-4-fluorophenyl)-3-(difluoromethyl)-1-methyl-], for which the IC50 in test [1] was found to be 0.0054 µM. In test [2], the “Disease Control Rating at 20 ppm” value turned out to be 2, the “Disease Control Rating at 100 ppm” value worked out at 2 and the “Disease Control Rating at 500 ppm” value came to 3. Moreover, in test [3], the pest or weed control at 50 ppm is 75% and the pest or weed control at 200 ppm is 92%. For the same compound, in test [4], the “Disease Control Rating at 0.02 mg/mL” value is 1, the “Disease Control Rating at 0.1 mg/mL” value came out at 3 and the “Disease Control Rating at 0.5 mg/mL” value came out at 3.

As to `Cn1cc(C(=O)Nc2ccc(F)cc2C2CCCCC2)c(C(F)(F)F)n1` [Example 12, 1H-pyrazole-4 carboxamide, N-(2-cyclohexyl-4-fluorophenyl)-1-methyl-3-(trifluoromethyl)-], the IC50 in test [1] turned out to be 0.0089 µM. In test [2], the “Disease Control Rating at 20 ppm” value is 1, the “Disease Control Rating at 100 ppm” value is recorded as 1 and the “Disease Control Rating at 500 ppm” value is reported as 3. In addition, in test [3], the pest or weed control at 50 ppm was 58% and the pest or weed control at 200 ppm is 59%. The “Disease Control Rating at 0.5 mg/mL” value in test [4] was found to be 2.

Turning to `Cc1nn(C)cc1C(=O)Nc1ccccc1C1CCCCCC1` [Example 13, 1H-pyrazole-4-carboxamide, N-(2-cycloheptylphenyl)-1,3-dimethyl-], the IC50 in test [1] stood at 0.011 µM. In test [2], the “Disease Control Rating at 20 ppm” value was 1, the “Disease Control Rating at 100 ppm” value is on record as 1 and the “Disease Control Rating at 500 ppm” value amounted to 3. In addition, in test [3], the pest or weed control at 50 ppm was found to be 63% and the pest or weed control at 200 ppm amounted to 66%. Besides, in test [4], the “Disease Control Rating at 0.02 mg/mL” value is given as 2, the “Disease Control Rating at 0.1 mg/mL” value was found to be 3 and the “Disease Control Rating at 0.5 mg/mL” value came to 3.
